Some test systems named below: A498 renal; A549 NSCLC; COLO 205 colon; IGROV1 ovarian; OVCAR-3 ovarian; OVCAR-4 ovarian; SF-295 CNS; SNB-75 CNS.
Assay in all cases: growth of human tumour cells (NCI), 48 h

Structures are written as SMILES. Values joined by “and” are separate entries in the source; they are usually repeats but may differ in a detail not shown here. Equal entries are not always repeated.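 Values below derive from 48-hour exposures of cells grown in 96-well plates, with endpoints linearly interpolated between the two concentrations bracketing the appropriate inhibition level. GI50 is the concentration that inhibits growth by half. TGI: total growth inhibition.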

As for `CCN1CCN(Cc2ccc(NC(=O)Nc3nc(-c4cc(OC)c(OC)c(OC)c4)cs3)cc2C(F)(F)F)CC1`, the GI50 was 1.96 µM with A498 renal; 1.96 µM in the experiment with A549 NSCLC; 1.58 µM with COLO 205 colon; 1.93 µM in the experiment with IGROV1 ovarian; 2.28 µM in the experiment with OVCAR-3 ovarian; 1.47 µM in the experiment on OVCAR-4 ovarian. Besides, the GI50 was 1.55 µM in the experiment on SF-295 CNS and 1.19 µM in the experiment with SNB-75 CNS. The TGI in the experiment with A498 renal amounted to 5.48 µM; in the experiment on A549 NSCLC, 4.45 µM; in the experiment on COLO 205 colon, 3.2 µM; in the experiment with IGROV1 ovarian, 4.59 µM; in the experiment on OVCAR-3 ovarian, 6.89 µM; in the experiment with OVCAR-4 ovarian it was 5.13 µM. The TGI in the experiment with SF-295 CNS amounted to 3.13 µM; in the experiment with SNB-75 CNS, 3.91 µM.

Take `CC[C@]12C=CCN3CC[C@]4(C(=C(C(=O)OC)C1)Nc1cc5c(cc14)[C@@H]1[C@H](O5)[C@@H](O)[C@@]4(CC)CC(C(=O)OC)=C5Nc6ccccc6[C@@]56CCN1[C@@H]46)[C@@H]32`: the GI50 in the experiment with A498 renal was 0.0729 µM and 0.283 µM; in the experiment with A549 NSCLC it was 1.2 µM and 0.875 µM; in the experiment with COLO 205 colon, 0.0695 µM; with IGROV1 ovarian it was 0.156 µM and 0.253 µM; with OVCAR-3 ovarian, 0.24 µM and 0.255 µM; with OVCAR-4 ovarian, 0.365 µM and 0.397 µM. Also, the GI50 is 1.17 µM and 0.535 µM in the experiment with SF-295 CNS; 0.0335 µM and 0.161 µM in the experiment with SNB-75 CNS. The TGI was 0.788 µM and 1.17 µM in the experiment with A498 renal; 12.7 µM and > 100 µM with A549 NSCLC; 2.78 µM in the experiment with COLO 205 colon; 3.99 µM and 14 µM in the experiment on IGROV1 ovarian; 1.13 µM and 1.29 µM in the experiment on OVCAR-3 ovarian; 13 µM and > 100 µM in the experiment on OVCAR-4 ovarian. Moreover, the TGI in the experiment with SF-295 CNS was 25 µM and 12.8 µM; with SNB-75 CNS, 25 µM and 18.7 µM.

On to `C=C(C(=O)c1ccccc1)C(NC(C)(C)C)c1ccccc1` (stereo not drawn), for which the GI50 was 1.7 µM with A498 renal; 2.74 µM in the experiment on A549 NSCLC; 1.29 µM in the experiment on COLO 205 colon; 2.3 µM in the experiment on IGROV1 ovarian; 1.3 µM with OVCAR-3 ovarian; 4.72 µM in the experiment with OVCAR-4 ovarian. Besides, the GI50 in the experiment on SF-295 CNS was 2.9 µM; in the experiment with SNB-75 CNS, 4 µM. In addition, the TGI in the experiment with A498 renal was found to be 3.25 µM; with A549 NSCLC it was 7.79 µM; in the experiment with COLO 205 colon, 2.81 µM; with IGROV1 ovarian, 6.9 µM; in the experiment with OVCAR-3 ovarian, 3.24 µM; in the experiment on OVCAR-4 ovarian it was 17.1 µM. Besides, the values for the TGI with SF-295 CNS and in the experiment with SNB-75 CNS were 10.8 µM and 16.6 µM, respectively.

`Cc1[nH]c(C(=O)Nc2cccc(OC3CCNCC3)c2)c(Cl)c1Cl`: the GI50 in the experiment on A498 renal was 1.89 µM; with A549 NSCLC, 2.04 µM; with COLO 205 colon, 1.93 µM; in the experiment with IGROV1 ovarian, 1.76 µM; in the experiment on OVCAR-3 ovarian, 1.97 µM; with OVCAR-4 ovarian, 2.6 µM. Moreover, the GI50 is 1.97 µM with SF-295 CNS and 1.13 µM with SNB-75 CNS. In addition, the TGI in the experiment with A498 renal turned out to be 4.6 µM; in the experiment on A549 NSCLC it was 4.17 µM; in the experiment on COLO 205 colon it was 4.02 µM; with IGROV1 ovarian it was 3.37 µM; in the experiment on OVCAR-3 ovarian, 4.01 µM; with OVCAR-4 ovarian, 6.76 µM. Moreover, the TGI with SF-295 CNS is 3.96 µM; in the experiment on SNB-75 CNS, 2.65 µM.

Consider `Cc1ccc(NC(=S)NNC(=S)Nc2ccc(C)cc2)cc1`, for which the GI50 was 2.96 µM with A498 renal; 6.03 µM in the experiment on A549 NSCLC; 7.6 µM with COLO 205 colon; 6.24 µM in the experiment with IGROV1 ovarian; 2.9 µM with OVCAR-3 ovarian; greater than 100 µM with OVCAR-4 ovarian. The GI50 in the experiment with SF-295 CNS is 3.16 µM; in the experiment on SNB-75 CNS, 3.39 µM. Besides, the TGI with A498 renal is greater than 100 µM; in the experiment on A549 NSCLC it was greater than 100 µM; with COLO 205 colon it was 50 µM; in the experiment on IGROV1 ovarian, greater than 100 µM; in the experiment on OVCAR-3 ovarian, 7.51 µM; in the experiment with OVCAR-4 ovarian, greater than 100 µM. Besides, the TGI was greater than 100 µM with SF-295 CNS and 67.3 µM with SNB-75 CNS.

Take `COc1ccc(-c2nc3sccn3c2-c2ccnc(NCCNS(=O)(=O)c3ccc(C(F)(F)F)cc3)n2)cc1`: the GI50 in the experiment with A498 renal is 0.31 µM; in the experiment on A549 NSCLC, 3.98 µM; in the experiment with COLO 205 colon it was 3.29 µM; in the experiment with IGROV1 ovarian, 3.18 µM; with OVCAR-3 ovarian, 2.03 µM; in the experiment on OVCAR-4 ovarian it was 1.99 µM. In addition, the GI50 with SF-295 CNS was 2.24 µM; with SNB-75 CNS, 1.98 µM. The TGI is 6.86 µM in the experiment with A498 renal; greater than 100 µM in the experiment on A549 NSCLC; greater than 100 µM in the experiment with COLO 205 colon; greater than 100 µM in the experiment with IGROV1 ovarian; greater than 100 µM in the experiment on OVCAR-3 ovarian; 39.6 µM in the experiment on OVCAR-4 ovarian. Further, the TGI in the experiment with SF-295 CNS was 5.58 µM; in the experiment on SNB-75 CNS, 10.7 µM.

For the compound `COc1ccc(N=Nc2ccc(O)c(=O)cc2)cc1`, the GI50 in the experiment on A498 renal is 24.1 µM; in the experiment on A549 NSCLC, 3.02 µM; in the experiment on COLO 205 colon, 7.07 µM; in the experiment with IGROV1 ovarian it was 3.86 µM; in the experiment with OVCAR-3 ovarian, 3.64 µM; with OVCAR-4 ovarian it was 5.05 µM. For the same compound, the GI50 is 3.79 µM in the experiment with SF-295 CNS and 3.43 µM with SNB-75 CNS. Further, the TGI with A498 renal, with A549 NSCLC, with COLO 205 colon, in the experiment with IGROV1 ovarian, in the experiment on OVCAR-3 ovarian and in the experiment on OVCAR-4 ovarian was greater than 100 µM in each case. Besides, the TGI in the experiment on SF-295 CNS and with SNB-75 CNS was greater than 100 µM in each case.

With `CC(C)C[C@H](NC(=O)[C@@H](Cc1ccccc1)n1ccc(Nc2ccccc2)cc1=O)B(O)O`, the GI50 with A498 renal is 0.0262 µM; in the experiment on A549 NSCLC, 0.525 µM; with COLO 205 colon, 0.545 µM; in the experiment on IGROV1 ovarian it was 1.33 µM; with OVCAR-3 ovarian, 0.233 µM; in the experiment on OVCAR-4 ovarian, 1.18 µM. Also, the GI50 in the experiment with SF-295 CNS was 0.285 µM; in the experiment on SNB-75 CNS, 0.3 µM. Moreover, the TGI with A498 renal stood at 0.36 µM; with A549 NSCLC, 21.6 µM; in the experiment with COLO 205 colon, 13.1 µM; with IGROV1 ovarian, 27.9 µM; in the experiment on OVCAR-3 ovarian, 0.561 µM; in the experiment on OVCAR-4 ovarian it was 21.3 µM. Also, the TGI with SF-295 CNS was 1.22 µM; in the experiment with SNB-75 CNS, 1.83 µM.

(Values after PubChem BioAssay (NCI).)
